Columns and labels:
WT-hSERT = biological target: T1, WT-hSERT (Homo sapiens, UniProt P31645); set-up: method as in our previous experiments; conditions: ref our previous experiments, read-out: Km for APP+ transport; cited from earlier work
T1 construct: expressed in transfected cells; host or cells: HeLa (ATCC CCL-2), transient, pcDNA3.1

WT-hNET = biological target: T2, WT-hNET (Homo sapiens, UniProt P23975); experiment: APP+ transport (uptake) in HeLa cells expressing WT-hNET; assay type: cell-based; conditions: hNET; kinetic analysis
T2 construct: expressed in transfected cells; host or cells: HeLa
T2 sequence (P23975 whole entry): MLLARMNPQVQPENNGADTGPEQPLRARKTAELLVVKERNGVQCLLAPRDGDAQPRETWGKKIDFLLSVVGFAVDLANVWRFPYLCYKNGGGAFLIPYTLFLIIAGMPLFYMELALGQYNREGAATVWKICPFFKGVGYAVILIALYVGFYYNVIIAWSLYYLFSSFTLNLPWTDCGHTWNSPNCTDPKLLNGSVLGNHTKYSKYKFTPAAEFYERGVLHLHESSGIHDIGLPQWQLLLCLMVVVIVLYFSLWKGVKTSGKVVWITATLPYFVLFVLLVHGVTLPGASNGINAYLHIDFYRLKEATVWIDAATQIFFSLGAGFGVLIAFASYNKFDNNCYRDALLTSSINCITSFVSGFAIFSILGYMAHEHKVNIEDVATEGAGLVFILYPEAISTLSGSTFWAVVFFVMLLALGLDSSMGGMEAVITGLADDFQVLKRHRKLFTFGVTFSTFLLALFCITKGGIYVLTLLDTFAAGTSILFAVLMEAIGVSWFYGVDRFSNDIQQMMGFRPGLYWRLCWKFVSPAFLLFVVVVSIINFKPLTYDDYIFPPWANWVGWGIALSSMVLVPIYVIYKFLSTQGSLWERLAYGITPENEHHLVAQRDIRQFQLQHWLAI
Protocol: (§1) HeLa cells were cultured in Dulbecco’s Modified Eagle’s Medium supplemented with 10% fetal bovine serum, 100 units/ml penicillin, and 100 μg/ml streptomycin at 37°C in a humidified 5% CO2 incubator. Cells were plated in a 6-well culture plate and grown overnight. Cells at ∼70% confluence were transfected with hSERT, hDAT, or hNET cDNA in pcDNA3.1 by lipofectamine 2000. Transfected cells were incubated for 24 h at 37°C with 5% CO2 and then transferred into a 12-well plate placed with polylysine coated slides. After grown for additional 12–16 h, the cells were assayed for APP^+ or ASP^+ fluorescence image acquisition.
(§2) The cells expressing WT or mutants of hSERT, hDAT, or hNET were wet mounted on polylysine coated glass slides in 12-well plates and applied for the indicated treatments. […] The extent of APP^+ accumulated in the cells was determined by confocal imaging analysis. ASP^+ binding to SERT in the cell membrane was measured with digitonin-permeabilized cells ([Li M. et al., 2022a]). […] After removing excess ASP^+ by rapid washing three times, ASP^+ binding was determined by confocal imaging analysis.
(§3) Images were analyzed using Zen Blue software.
(§4) Nonlinear regression fits of experimental and calculated data were performed with Origin (Origin Lab). […]

WT-hDAT = biological target: T3, WT-hDAT (Homo sapiens, UniProt Q01959); experiment: APP+ transport (uptake) in HeLa cells expressing WT-hDAT; assay type: cell-based; conditions: hDAT; kinetic analysis
T3 construct: expressed in transfected cells; host or cells: HeLa
T3 sequence (Q01959 whole entry): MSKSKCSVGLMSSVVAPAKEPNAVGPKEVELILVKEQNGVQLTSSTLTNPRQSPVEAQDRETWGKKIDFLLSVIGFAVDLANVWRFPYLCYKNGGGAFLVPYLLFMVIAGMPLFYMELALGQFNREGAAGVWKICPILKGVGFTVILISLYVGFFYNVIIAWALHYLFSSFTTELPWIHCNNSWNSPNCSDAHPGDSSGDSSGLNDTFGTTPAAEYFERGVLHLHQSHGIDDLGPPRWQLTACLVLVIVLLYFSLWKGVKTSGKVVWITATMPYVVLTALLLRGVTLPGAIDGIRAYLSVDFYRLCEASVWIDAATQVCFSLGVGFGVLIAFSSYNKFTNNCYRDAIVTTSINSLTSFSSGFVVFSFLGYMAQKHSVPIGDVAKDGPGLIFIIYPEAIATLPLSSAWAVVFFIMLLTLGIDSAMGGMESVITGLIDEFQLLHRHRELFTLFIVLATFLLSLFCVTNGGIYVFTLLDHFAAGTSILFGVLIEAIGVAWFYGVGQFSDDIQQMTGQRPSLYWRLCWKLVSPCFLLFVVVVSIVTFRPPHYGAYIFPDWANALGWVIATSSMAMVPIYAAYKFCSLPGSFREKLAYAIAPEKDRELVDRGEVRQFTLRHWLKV
Protocol: as §1, §2, §3, §4

T1 sequence (P31645 whole entry): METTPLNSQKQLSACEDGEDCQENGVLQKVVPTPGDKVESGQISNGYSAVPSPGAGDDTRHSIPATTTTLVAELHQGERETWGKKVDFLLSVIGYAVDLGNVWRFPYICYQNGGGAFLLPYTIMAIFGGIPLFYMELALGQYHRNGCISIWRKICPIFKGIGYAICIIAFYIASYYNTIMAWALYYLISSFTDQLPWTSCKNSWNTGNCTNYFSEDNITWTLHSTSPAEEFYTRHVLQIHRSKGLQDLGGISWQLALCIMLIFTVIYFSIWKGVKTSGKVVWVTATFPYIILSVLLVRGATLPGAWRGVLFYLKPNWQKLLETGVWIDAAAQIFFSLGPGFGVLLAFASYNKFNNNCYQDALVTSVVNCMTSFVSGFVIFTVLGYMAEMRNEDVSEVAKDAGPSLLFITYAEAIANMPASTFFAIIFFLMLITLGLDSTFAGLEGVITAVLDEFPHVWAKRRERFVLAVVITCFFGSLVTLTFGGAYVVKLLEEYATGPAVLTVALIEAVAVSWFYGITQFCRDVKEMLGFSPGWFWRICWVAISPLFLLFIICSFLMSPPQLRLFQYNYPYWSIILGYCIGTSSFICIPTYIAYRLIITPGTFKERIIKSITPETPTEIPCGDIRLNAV

Substance: 4-[4-(Dimethylamino)phenyl]-1-methylpyridinium [APP^+, reference compound]
- Km (WT-hSERT): 2.63 ± 0.16 µM
- Km (WT-hNET): 1.56 ± 0.22 µM
- Km (WT-hDAT): 2.89 ± 0.48 µM

— paper PMC9649612, “Molecular docking and biochemical validation of (-)-syringaresinol-4-O-β-D-apiofuranosyl-(1→2)-β-D-glucopyranoside binding to an allosteric site in monoamine transporters” (Frontiers in Pharmacology, 2022)
